The text below walks through data of patent publication US20070060605A1, “Compositions and methods for inhibiting platelet activation and thrombosis” (priority 2001, published 2007).

Like-named read-outs stand apart in the source and are kept apart here.

In one experiment the test system is platelets. As to the kind of experiment: Agonist-induced platelet granule secretion / activation (P-selectin expression by flow cytometry; ADP/ATP release). Format: cell-based, human. As for the experimental part: In order to monitor ATP release, a cocktail of 100 μM SFLLR (synthesized using solid phase Fmoc chemistry on an Applied Biosystems model 430A peptide synthesizer) and 3 mg/ml of luciferin/luciferase (Sigma, St. Louis, Mo.) in a volume of 10 μl is added to 20 μl of PRP. Samples are immediately analyzed for luminescence. Activated platelets supply the ATP necessary for luminescence of the luciferin/luciferase assay. Assays can be performed at high throughput through use of a microtiter plate system, e.g., 384-well plates and a Multidrop 384 (Thermo Labsystems, Helsinki), read with a high density imaging system, e.g., the Tundra system (Imaging Research, St. Catherine's, Ontario).
In order to assay platelet activation by cell surface marker expression, fresh PRP is isolated from donors who have not ingested aspirin for two weeks prior to donation. PRP (40 μl) is incubated with known or suspected inhibitor in DMSO or DMSO alone for 15 min. The sample is then incubated with the indicated agonist (e.g., SFLLR) for 10 min. Following incubation of the sample with the indicated agonist, 10 μl of reaction mixture is transferred to 5 μl of phycoerythrin (PE)-conjugated AC 1.2 anti-P-selectin antibody (for assessment of P-selectin surface expression) or fluorescein isothiocyanate (FITC)-conjugated PAC-1 antibody (for assessment of GPIIbIIIa activation). PBS (500 μl) is added to the sample after a 20 min incubation and the platelets are analyzed immediately by flow cytometry. Flow cytometry can be performed using, for example, a Becton-Dickinson FACSCalibur flow cytometer or its equivalent. Fluorescent channels are set at logarithmic gain. Ten thousand particles are acquired for each sample. A 530/30 band pass filter is used for FL-1 fluorescence. A 585/42 band pass filter is used for FL-2 fluorescence. FITC is measured in the FL-1 channel and PE is measured in the FL-2 channel. Data are analyzed using, for example, CellQuest software on a Macintosh PowerPC, or their equivalents.
Compounds were tested for the ability to inhibit agonist-induced ADP/ATP release from platelet dense granules using a luciferin-luciferase reporter system. In this assay, compounds were incubated with platelet-rich plasma (PRP) for 30 min. A cocktail of the platelet agonist and luciferin-luciferase was then added to the wells. Plates were immediately analyzed using a Tundra high density luminescence imager. […] As a control, compounds were also screened in a platelet-free assay for the ability to inhibit luciferin-luciferase upon exposure to ATP.
Each of the compounds was tested for inhibition of platelet activation in response to the agonists SFLLR (a thrombin mimic), U46619 (a thromboxane A2 mimic), ADP and the phorbol ester PMA.
Compounds were also tested by flow cytometry for the inhibition of SFLLR-induced GPIIbIIIa activation and P-selectin expression. In these experiments, freshly obtained PRP was prepared from healthy volunteers who had not ingested aspirin for two weeks prior to donation. Forty μl of PRP was incubated with inhibitor in DMSO or DMSO alone for 15 min. The sample was then incubated with the indicated agonist for 10 min. Following incubation of the sample with the indicated agonist, 10 μl of reaction mixture was transferred to 5 μl of PE-conjugated AC1.2 anti-P-selectin antibody (for assessment of P-selectin surface expression) or FITC-conjugated PAC-1 antibody (for assessment of GPIIbIIIa activation). PBS (500 μl) was added to the sample after a 20 min incubation and the platelets were analyzed immediately by flow cytometry. Flow cytometry was performed using a Becton-Dickinson FACSCalibur flow cytometer. Fluorescent channels were set at logarithmic gain. Ten thousand particles were acquired for each sample. A 530/30 band pass filter was used for FL-1 fluorescence. A 585/42 band pass filter was used for FL-2 fluorescence. FITC was measured in the FL-1 channel and PE was measured in the FL-2 channel.
Background: In flow cytometry, cells or beads pass a laser one at a time.

Experiment [1] has as its system platelet accumulation into thrombus. Format: in vivo. To be noted: bolus 6 mg/kg/5 min then continuous infusion 3 mg/kg/90 min; P<0.01. An excerpt:
A preferred animal model involves intravital microscopy of laser-induced thrombi. The method is described by Rosen et al., 2001, Am J Pathol 158, 1613-1622, which is incorporated herein by reference. Minor variations of that method were employed as described below.
Experimental mice are pre-anesthetized and surgically prepared. A tracheal tube is placed to facilitate breathing and the jugular vein is canulated to allow for maintenance of anesthetic and introduction of compound. The cremaster muscle is then exteriorized. The muscle is affixed over a glass slide, allowing illumination from below. A steady drip of a sodium-bicarbonate buffered salt solution is maintained throughout the experiment to keep the exposed muscle moist. Blood flow in the muscle is visualized using a 40× water immersion lens and epi-illuminated with an appropriately filtered light source. Alexa 488-labeled anti-mouse CD41 antibody is injected through the jugular canulus to label platelets in vivo.
Thrombosis is initiated by damaging the vessel wall (of a 30 μm vessel) with a laser pulse from a MicroPoint LASER attached to the microscope. A LASER pulse is delivered, causing damage in an area smaller than 1 μm. The recruitment of platelets to the thrombus is then monitored by the accumulation of (activated) Alexa 488-labeled platelets at the ablation site using fluorescence microscopy, and the process is recorded digitally. The method thus permits in vivo analysis of platelet activation as measured by platelet aggregation and thrombosis.
The degree of embolization in an untreated mouse can be quantified using software for image analysis, e.g., BioQuant True Color Windows (Biometrics, Nashville, Tenn.), as described in Rosen et al., 2001, supra. The software package permits the determination of the “integrated optical density” or IOD of the thrombus.
Using quantitative intravital fluorescence videomicroscopy with high temporal resolution (111 images/second), the effect of PDE3 inhibition on the platelet recruitment into thrombi was directly observed over time. Platelets were fluorescently labeled by infusing rat-anti-mouse CD41 and Alexa 488-anti-rat IgG through a cannulated jugular vein. The cremaster microvasculature was exposed and mapped and suitable arteriole segments were selected for laser-induced injury. A series of control injuries were generated prior to infusion of the inhibitory compound. The power and the number of laser pulses required to generate each thrombus was recorded. Platelet accumulation to the thrombi following laser ablation was recorded using digital videomicroscopy. The thrombus total fluorescence in each frame of the videos was analyzed using Slidebook software for digital videomicroscopy. The pyridazinone compound was then infused. Following a 15 minute incubation, a series of experimental injuries were generated 250 μm proximal, with relationship to blood flow, of the first injury and the resultant thrombi were recorded. The power and the number of pulses required to induce the control thrombus was used to induce the experimental thrombus. The control and experimental thrombi constituting a pair were compared for statistical analysis. The total fluorescence intensity of the thrombi before and after the infusion of pyridazinone compound was recorded.
Images from a representative experiment of the recruitment of fluorescently-labeled […] platelets into a growing thrombus over time is shown in FIG. 9A.

In experiment [2] the target is platelet cGMP-inhibited phosphodiesterase (Homo sapiens, UniProt Q14432). The settings on record: Omburo et al., 1995; cited from earlier work.
The conditions of experiment [3]: patients suffering intermittent claudication; cited from earlier work.

Chain of platelet cGMP-inhibited phosphodiesterase (Q14432 whole entry): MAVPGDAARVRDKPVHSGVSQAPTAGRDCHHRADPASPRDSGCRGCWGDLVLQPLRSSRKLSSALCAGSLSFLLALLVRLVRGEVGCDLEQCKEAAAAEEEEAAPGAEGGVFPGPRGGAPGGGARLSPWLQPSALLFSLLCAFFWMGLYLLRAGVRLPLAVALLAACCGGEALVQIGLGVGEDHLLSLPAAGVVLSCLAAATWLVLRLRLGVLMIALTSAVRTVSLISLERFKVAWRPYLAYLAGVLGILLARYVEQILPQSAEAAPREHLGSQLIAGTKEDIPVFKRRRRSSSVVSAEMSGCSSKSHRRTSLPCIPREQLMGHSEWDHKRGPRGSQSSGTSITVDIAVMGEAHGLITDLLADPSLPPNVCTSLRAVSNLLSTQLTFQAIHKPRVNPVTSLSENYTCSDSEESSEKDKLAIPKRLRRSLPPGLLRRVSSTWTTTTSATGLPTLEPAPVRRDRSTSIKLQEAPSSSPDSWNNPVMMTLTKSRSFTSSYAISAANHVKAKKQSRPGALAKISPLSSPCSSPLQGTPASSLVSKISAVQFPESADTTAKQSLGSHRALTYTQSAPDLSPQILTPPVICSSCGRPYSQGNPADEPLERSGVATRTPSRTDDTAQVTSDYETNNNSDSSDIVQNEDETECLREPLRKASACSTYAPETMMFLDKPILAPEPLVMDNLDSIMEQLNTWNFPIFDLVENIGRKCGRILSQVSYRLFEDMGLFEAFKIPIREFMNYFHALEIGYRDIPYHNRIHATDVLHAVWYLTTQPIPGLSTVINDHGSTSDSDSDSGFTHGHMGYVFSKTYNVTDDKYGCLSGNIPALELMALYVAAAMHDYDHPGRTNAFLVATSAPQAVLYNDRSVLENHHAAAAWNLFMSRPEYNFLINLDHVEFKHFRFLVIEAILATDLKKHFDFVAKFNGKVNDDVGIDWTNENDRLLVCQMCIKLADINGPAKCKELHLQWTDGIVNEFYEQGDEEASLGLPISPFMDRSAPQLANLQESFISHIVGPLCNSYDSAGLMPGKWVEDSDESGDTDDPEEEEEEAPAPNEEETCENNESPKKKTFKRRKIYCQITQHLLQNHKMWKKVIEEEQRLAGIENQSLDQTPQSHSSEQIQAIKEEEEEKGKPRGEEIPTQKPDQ

Turning to “9-methylene-4-(alkyl)-2,3,4,9-tetrahydro-1H-cyclopenta(b)quinoline”, the IC50 is 650 µM with platelets (agonist ADP, read-out: IC50s of inhibition of platelet granule secretion induced with ADP); 300 µM in the experiment with platelets (agonist PMA, read-out: IC50s of inhibition of platelet granule secretion induced with PMA); 5 µM in the experiment on platelets (agonist SFLLR, read-out: IC50s of inhibition of platelet granule secretion induced with SFLLR); 400 µM with platelets (agonist U-46619, read-out: IC50s of inhibition of platelet granule secretion induced with U-46619). Also, in experiment [1], the “Inhibition of thrombosis following laser-induced injury” value was “greater than 80%”. For the same compound, the “Activation of mouse platelets by several platelet agonists” value in the experiment with mouse platelets was “inhibits”.

As for `c1cnc2c(c1)ccc1cccnc12` [[1,10]phenanthroline], the IC50 in experiment [2] was approximately 2000 µM.

Regarding `O=C1CCc2cc(OCCCCc3nnnn3C3CCCCC3)ccc2N1` [cilostazol], the “Increase of distance of pain free walking” value in experiment [3] is “up to 59%”.
